In paper PMC4767141, “Discovery of Potent, Orally Bioavailable, Small-Molecule Inhibitors of WNT Signaling from a Cell-Based Pathway Screen” (Journal of Medicinal Chemistry, 2015):

Tests used:
GABA (non-selective) = assay: CEREP binding panel; conditions: 10 μM, agonist radioligand
CCR1 (h) = molecular target: T1, CCR1 (h) (Homo sapiens, UniProt P32246); assay: CEREP binding panel; conditions: agonist radioligand, read-out: % Inhibition of Control Specific Binding
T1 construct: purchased Millipore KinaseProfiler (kinases); Cerep (receptors and ion channels)

MT1 (ML1A) (h) = molecular target: T2, MT1 (ML1A) (h) (Homo sapiens, UniProt P48039); assay: CEREP binding panel; conditions: agonist radioligand, read-out: % Inhibition of Control Specific Binding
T2 construct: purchased Millipore KinaseProfiler (kinases); Cerep (receptors and ion channels)

M2 (h) = molecular target: T3, M2 (h) (Homo sapiens, UniProt P08172); assay: CEREP binding panel; conditions: antagonist radioligand, read-out: % Inhibition of Control Specific Binding
T3 construct: purchased Millipore KinaseProfiler (kinases); Cerep (receptors and ion channels)

NK3 (h) = molecular target: T4, NK3 (h) (Homo sapiens, UniProt P29371); assay: CEREP binding panel; conditions: antagonist radioligand, read-out: % Inhibition of Control Specific Binding
T4 construct: purchased Millipore KinaseProfiler (kinases); Cerep (receptors and ion channels)

κ (KOP) = molecular target: T5, κ (KOP) (Rattus norvegicus, UniProt P34975); assay: CEREP binding panel; conditions: 10 μM, agonist radioligand
T5 construct: purchased Millipore KinaseProfiler (kinases); Cerep (receptors and ion channels)
T5 sequence (P34975 whole entry): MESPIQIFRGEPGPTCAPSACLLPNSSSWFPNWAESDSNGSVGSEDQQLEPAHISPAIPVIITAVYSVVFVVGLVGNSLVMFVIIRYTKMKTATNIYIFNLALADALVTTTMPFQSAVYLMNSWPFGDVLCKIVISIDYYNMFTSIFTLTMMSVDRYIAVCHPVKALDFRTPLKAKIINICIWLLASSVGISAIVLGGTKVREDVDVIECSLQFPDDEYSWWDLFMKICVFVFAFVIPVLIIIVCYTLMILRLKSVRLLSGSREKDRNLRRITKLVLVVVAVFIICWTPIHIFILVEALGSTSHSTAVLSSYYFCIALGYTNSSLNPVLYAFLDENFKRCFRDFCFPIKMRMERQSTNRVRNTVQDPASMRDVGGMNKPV

5-HT2B (h) = molecular target: T6, 5-HT2B (h) (Homo sapiens, UniProt P41595); assay: CEREP binding panel; conditions: agonist radioligand, read-out: % Inhibition of Control Specific Binding
T6 construct: purchased Millipore KinaseProfiler (kinases); Cerep (receptors and ion channels)

SKCa channel = assay: CEREP binding panel; conditions: 10 μM, antagonist radioligand
5-HT transporter (h) = molecular target: T7, 5-HT transporter (h) (Homo sapiens, UniProt P31645); assay: CEREP binding panel; conditions: antagonist radioligand, read-out: % Inhibition of Control Specific Binding
T7 construct: purchased Millipore KinaseProfiler (kinases); Cerep (receptors and ion channels)

ABL = molecular target: T8, ABL (Homo sapiens, UniProt P00519); assay: Millipore kinase panel; assay type: biochemical; conditions: read-out: % Control
T8 construct: purchased Millipore KinaseProfiler (kinases); Cerep (receptors and ion channels)

ALK = molecular target: T9, ALK (Homo sapiens, UniProt Q9UM73); assay: Millipore kinase panel; assay type: biochemical; conditions: read-out: % Control
T9 construct: purchased Millipore KinaseProfiler (kinases); Cerep (receptors and ion channels)

ALK4 = molecular target: T10, ALK4 (Homo sapiens, UniProt P36896); assay: Millipore kinase panel; assay type: biochemical; conditions: read-out: % Control
T10 construct: purchased Millipore KinaseProfiler (kinases); Cerep (receptors and ion channels)

ARK5 = molecular target: T11, ARK5 (Homo sapiens, UniProt O60285); assay: Millipore kinase panel; assay type: biochemical; conditions: read-out: % Control
T11 construct: purchased Millipore KinaseProfiler (kinases); Cerep (receptors and ion channels)
T11 sequence (O60285 whole entry): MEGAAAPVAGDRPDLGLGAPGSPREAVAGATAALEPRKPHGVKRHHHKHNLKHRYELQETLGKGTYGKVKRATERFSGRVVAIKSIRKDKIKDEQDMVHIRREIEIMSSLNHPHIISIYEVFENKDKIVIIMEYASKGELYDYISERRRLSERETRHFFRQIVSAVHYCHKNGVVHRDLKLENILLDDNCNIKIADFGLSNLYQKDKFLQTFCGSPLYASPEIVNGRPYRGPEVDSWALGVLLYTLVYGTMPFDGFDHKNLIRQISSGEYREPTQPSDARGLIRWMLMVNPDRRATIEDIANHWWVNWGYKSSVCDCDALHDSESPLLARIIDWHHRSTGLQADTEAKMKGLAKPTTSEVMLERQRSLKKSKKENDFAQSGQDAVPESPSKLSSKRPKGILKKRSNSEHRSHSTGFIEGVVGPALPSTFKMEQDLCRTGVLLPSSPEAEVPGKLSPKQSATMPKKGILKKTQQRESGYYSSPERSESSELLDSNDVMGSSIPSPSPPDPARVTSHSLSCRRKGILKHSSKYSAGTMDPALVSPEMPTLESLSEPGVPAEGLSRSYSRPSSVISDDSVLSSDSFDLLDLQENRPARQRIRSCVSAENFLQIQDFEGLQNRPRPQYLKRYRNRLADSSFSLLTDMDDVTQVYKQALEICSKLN

CDK5/P25 = molecular target: T12, CDK5/P25 (Homo sapiens, UniProt Q00535); assay: Millipore kinase panel; assay type: biochemical; conditions: read-out: % Control
T12 construct: purchased Millipore KinaseProfiler (kinases); Cerep (receptors and ion channels)

CDK6/CYCLIND3 = molecular target: T13, CDK6/CYCLIND3 (Homo sapiens, UniProt Q00534); assay: Millipore kinase panel; assay type: biochemical; conditions: read-out: % Control
T13 construct: purchased Millipore KinaseProfiler (kinases); Cerep (receptors and ion channels)

CDK7/CYCLINH/MAT1 = molecular target: T14, CDK7/CYCLINH/MAT1 (Homo sapiens, UniProt P50613); assay: Millipore kinase panel; assay type: biochemical; conditions: read-out: % Control
T14 construct: purchased Millipore KinaseProfiler (kinases); Cerep (receptors and ion channels)

CDK9/CYCLINT1 = molecular target: T15, CDK9/CYCLINT1 (Homo sapiens, UniProt P50750); assay: Millipore kinase panel; assay type: biochemical; conditions: read-out: % Control
T15 construct: purchased Millipore KinaseProfiler (kinases); Cerep (receptors and ion channels)

DMPK = molecular target: T16, DMPK (Homo sapiens, UniProt Q09013); assay: Millipore kinase panel; assay type: biochemical; conditions: read-out: % Control
T16 construct: purchased Millipore KinaseProfiler (kinases); Cerep (receptors and ion channels)

EPHA8 = molecular target: T17, EPHA8 (Homo sapiens, UniProt P29322); assay: Millipore kinase panel; assay type: biochemical; conditions: read-out: % Control
T17 construct: purchased Millipore KinaseProfiler (kinases); Cerep (receptors and ion channels)
T17 sequence (P29322 28-1005): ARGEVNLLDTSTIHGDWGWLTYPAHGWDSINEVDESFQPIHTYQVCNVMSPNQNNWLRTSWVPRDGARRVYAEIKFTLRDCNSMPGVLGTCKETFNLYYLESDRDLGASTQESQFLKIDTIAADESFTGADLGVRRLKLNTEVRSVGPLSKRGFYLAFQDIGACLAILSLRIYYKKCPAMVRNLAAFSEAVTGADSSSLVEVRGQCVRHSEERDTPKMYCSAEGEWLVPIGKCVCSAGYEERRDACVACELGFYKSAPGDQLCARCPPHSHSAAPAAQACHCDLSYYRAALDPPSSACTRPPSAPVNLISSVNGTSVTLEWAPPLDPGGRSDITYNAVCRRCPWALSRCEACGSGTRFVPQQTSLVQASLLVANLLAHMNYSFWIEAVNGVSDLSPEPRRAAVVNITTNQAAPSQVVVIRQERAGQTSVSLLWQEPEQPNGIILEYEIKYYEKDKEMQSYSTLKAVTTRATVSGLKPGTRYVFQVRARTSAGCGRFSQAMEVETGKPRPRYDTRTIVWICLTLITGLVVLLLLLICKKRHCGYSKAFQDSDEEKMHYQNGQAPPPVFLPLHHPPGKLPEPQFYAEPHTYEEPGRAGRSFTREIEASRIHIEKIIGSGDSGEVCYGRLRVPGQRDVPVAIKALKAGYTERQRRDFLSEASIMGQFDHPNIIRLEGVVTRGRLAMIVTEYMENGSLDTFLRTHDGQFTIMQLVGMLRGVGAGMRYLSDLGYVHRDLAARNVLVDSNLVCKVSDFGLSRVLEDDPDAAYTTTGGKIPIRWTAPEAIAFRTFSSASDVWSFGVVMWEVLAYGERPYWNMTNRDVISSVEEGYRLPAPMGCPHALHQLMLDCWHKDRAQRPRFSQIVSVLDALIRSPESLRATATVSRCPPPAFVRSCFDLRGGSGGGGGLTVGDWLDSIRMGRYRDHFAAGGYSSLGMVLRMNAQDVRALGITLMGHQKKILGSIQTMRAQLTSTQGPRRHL

ERBB4 = molecular target: T18, ERBB4 (Homo sapiens, UniProt Q15303); assay: Millipore kinase panel; assay type: biochemical; conditions: read-out: % Control
T18 construct: purchased Millipore KinaseProfiler (kinases); Cerep (receptors and ion channels)

FER = molecular target: T19, FER (Homo sapiens, UniProt P16591); assay: Millipore kinase panel; assay type: biochemical; conditions: read-out: % Control
T19 construct: purchased Millipore KinaseProfiler (kinases); Cerep (receptors and ion channels)

FYN = molecular target: T20, FYN (Homo sapiens, UniProt P06241); assay: Millipore kinase panel; assay type: biochemical; conditions: read-out: % Control
T20 construct: purchased Millipore KinaseProfiler (kinases); Cerep (receptors and ion channels)

LCK = molecular target: T21, LCK (Homo sapiens, UniProt P06239); assay: Millipore kinase panel; assay type: biochemical
T21 construct: purchased Millipore
T21 sequence (P06239 whole entry): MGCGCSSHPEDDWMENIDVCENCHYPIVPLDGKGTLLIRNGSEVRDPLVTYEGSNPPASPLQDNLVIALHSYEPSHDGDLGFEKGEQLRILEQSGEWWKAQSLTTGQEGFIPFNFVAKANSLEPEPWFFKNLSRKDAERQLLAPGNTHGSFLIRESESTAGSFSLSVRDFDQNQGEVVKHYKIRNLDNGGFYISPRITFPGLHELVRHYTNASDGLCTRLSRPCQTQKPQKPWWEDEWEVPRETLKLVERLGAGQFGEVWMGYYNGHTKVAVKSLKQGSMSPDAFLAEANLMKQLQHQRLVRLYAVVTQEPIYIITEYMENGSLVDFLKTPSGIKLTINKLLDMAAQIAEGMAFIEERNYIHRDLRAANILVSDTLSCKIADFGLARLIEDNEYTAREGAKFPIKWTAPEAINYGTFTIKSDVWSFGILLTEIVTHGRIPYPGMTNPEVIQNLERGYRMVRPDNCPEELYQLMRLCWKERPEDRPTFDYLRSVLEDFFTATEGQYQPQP

LOK = molecular target: T22, LOK (Homo sapiens, UniProt O94804); assay: Millipore kinase panel; assay type: biochemical; conditions: read-out: % Control
T22 construct: purchased Millipore KinaseProfiler (kinases); Cerep (receptors and ion channels)

MINK = molecular target: T23, MINK (Homo sapiens, UniProt Q8N4C8); assay: Millipore kinase panel; assay type: biochemical; conditions: read-out: % Control
T23 construct: purchased Millipore KinaseProfiler (kinases); Cerep (receptors and ion channels)

MLCK = molecular target: T24, MLCK (Homo sapiens, UniProt Q9H1R3); assay: Millipore kinase panel; assay type: biochemical; conditions: read-out: % Control
T24 construct: purchased Millipore KinaseProfiler (kinases); Cerep (receptors and ion channels)

MRCKBETA = molecular target: T25, MRCKBETA (Homo sapiens, UniProt Q9Y5S2); assay: Millipore kinase panel; assay type: biochemical; conditions: read-out: % Control
T25 construct: purchased Millipore KinaseProfiler (kinases); Cerep (receptors and ion channels)

MSK1 = molecular target: T26, MSK1 (Homo sapiens, UniProt O75582); assay: Millipore kinase panel; assay type: biochemical; conditions: read-out: % Control
T26 construct: purchased Millipore KinaseProfiler (kinases); Cerep (receptors and ion channels)

PAK2 = molecular target: T27, PAK2 (Homo sapiens, UniProt Q13177); assay: Millipore kinase panel; assay type: biochemical; conditions: read-out: % Control
T27 construct: purchased Millipore KinaseProfiler (kinases); Cerep (receptors and ion channels)

PAK5 = molecular target: T28, PAK5 (Homo sapiens, UniProt Q9P286); assay: Millipore kinase panel; assay type: biochemical; conditions: read-out: % Control
T28 construct: purchased Millipore KinaseProfiler (kinases); Cerep (receptors and ion channels)

PAK6 = molecular target: T29, PAK6 (Homo sapiens, UniProt Q9NQU5); assay: Millipore kinase panel; assay type: biochemical; conditions: read-out: % Control
T29 construct: purchased Millipore KinaseProfiler (kinases); Cerep (receptors and ion channels)

PKCZETA = molecular target: T30, PKCZETA (Homo sapiens, UniProt Q05513); assay: Millipore kinase panel; assay type: biochemical; conditions: read-out: % Control
T30 construct: purchased Millipore KinaseProfiler (kinases); Cerep (receptors and ion channels)

PRK2 = molecular target: T31, PRK2 (Homo sapiens, UniProt Q16513); assay: Millipore kinase panel; assay type: biochemical; conditions: read-out: % Control
T31 construct: purchased Millipore KinaseProfiler (kinases); Cerep (receptors and ion channels)

PTK5 = molecular target: T32, PTK5 (Homo sapiens, UniProt P42685); assay: Millipore kinase panel; assay type: biochemical; conditions: read-out: % Control
T32 construct: purchased Millipore KinaseProfiler (kinases); Cerep (receptors and ion channels)

ROCK-I = molecular target: T33, ROCK-I (Homo sapiens, UniProt Q13464); assay: Millipore kinase panel; assay type: biochemical; conditions: read-out: % Control
T33 construct: purchased Millipore KinaseProfiler (kinases); Cerep (receptors and ion channels)
T33 sequence (Q13464 whole entry): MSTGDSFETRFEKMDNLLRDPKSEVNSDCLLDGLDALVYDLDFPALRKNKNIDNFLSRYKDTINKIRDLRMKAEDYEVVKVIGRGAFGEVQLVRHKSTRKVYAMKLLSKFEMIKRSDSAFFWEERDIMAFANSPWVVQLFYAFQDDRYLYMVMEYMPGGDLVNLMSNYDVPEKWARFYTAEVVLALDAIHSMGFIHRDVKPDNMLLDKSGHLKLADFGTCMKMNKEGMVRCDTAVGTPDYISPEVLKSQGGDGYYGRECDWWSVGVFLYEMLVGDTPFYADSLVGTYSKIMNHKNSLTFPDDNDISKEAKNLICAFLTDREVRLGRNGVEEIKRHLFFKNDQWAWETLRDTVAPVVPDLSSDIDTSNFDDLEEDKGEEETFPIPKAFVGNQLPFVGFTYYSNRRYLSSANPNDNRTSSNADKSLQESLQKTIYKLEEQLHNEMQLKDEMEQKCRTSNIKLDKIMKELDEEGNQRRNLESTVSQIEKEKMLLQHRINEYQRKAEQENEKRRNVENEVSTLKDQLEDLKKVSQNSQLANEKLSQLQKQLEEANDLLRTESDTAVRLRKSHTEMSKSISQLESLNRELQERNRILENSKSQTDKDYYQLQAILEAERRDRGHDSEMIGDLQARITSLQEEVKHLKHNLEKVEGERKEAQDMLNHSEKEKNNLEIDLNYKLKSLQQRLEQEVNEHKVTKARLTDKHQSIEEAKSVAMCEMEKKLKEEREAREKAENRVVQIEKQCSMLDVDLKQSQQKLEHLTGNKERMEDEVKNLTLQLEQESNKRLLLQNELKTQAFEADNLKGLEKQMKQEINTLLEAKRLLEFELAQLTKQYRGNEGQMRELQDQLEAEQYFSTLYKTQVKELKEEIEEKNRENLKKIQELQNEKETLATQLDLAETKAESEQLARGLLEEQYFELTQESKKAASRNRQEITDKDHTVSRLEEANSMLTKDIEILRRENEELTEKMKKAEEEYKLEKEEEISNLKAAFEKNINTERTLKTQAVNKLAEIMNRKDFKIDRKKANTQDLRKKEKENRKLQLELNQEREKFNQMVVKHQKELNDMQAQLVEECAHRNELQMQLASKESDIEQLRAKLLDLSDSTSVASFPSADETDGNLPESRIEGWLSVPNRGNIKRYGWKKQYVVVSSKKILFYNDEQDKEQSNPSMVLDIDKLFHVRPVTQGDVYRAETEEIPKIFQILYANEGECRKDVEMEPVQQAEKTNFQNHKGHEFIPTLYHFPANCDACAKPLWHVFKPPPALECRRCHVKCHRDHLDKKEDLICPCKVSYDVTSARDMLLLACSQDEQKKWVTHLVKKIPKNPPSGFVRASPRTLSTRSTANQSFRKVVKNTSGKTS

RON = molecular target: T34, RON (Homo sapiens, UniProt Q04912); assay: Millipore kinase panel; assay type: biochemical; conditions: read-out: % Control
T34 construct: purchased Millipore KinaseProfiler (kinases); Cerep (receptors and ion channels)

SRPK2 = molecular target: T35, SRPK2 (Homo sapiens, UniProt P78362); assay: Millipore kinase panel; assay type: biochemical; conditions: read-out: % Control
T35 construct: purchased Millipore KinaseProfiler (kinases); Cerep (receptors and ion channels)

STK33 = molecular target: T36, STK33 (Homo sapiens, UniProt Q9BYT3); assay: Millipore kinase panel; assay type: biochemical; conditions: read-out: % Control
T36 construct: purchased Millipore KinaseProfiler (kinases); Cerep (receptors and ion channels)
T36 sequence (Q9BYT3 whole entry): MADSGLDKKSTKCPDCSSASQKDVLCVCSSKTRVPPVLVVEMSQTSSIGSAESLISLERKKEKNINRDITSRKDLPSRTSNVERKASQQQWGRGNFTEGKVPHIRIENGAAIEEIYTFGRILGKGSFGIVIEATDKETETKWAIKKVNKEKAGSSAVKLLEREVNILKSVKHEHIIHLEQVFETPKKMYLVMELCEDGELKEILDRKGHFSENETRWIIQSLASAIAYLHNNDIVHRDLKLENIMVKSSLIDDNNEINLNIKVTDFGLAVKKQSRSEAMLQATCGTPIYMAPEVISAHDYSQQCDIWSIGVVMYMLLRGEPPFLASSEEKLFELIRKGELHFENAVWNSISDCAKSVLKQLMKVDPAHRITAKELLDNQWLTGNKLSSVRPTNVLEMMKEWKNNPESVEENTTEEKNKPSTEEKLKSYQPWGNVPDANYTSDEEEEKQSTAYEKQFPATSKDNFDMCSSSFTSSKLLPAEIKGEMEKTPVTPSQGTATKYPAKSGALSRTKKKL

TBK1 = molecular target: T37, TBK1 (Homo sapiens, UniProt Q9UHD2); assay: Millipore kinase panel; assay type: biochemical; conditions: read-out: % Control
T37 construct: purchased Millipore KinaseProfiler (kinases); Cerep (receptors and ion channels)

YES = molecular target: T38, YES (Homo sapiens, UniProt P07947); assay: Millipore kinase panel; assay type: biochemical; conditions: read-out: % Control
T38 construct: purchased Millipore KinaseProfiler (kinases); Cerep (receptors and ion channels)
T38 sequence (P07947 whole entry): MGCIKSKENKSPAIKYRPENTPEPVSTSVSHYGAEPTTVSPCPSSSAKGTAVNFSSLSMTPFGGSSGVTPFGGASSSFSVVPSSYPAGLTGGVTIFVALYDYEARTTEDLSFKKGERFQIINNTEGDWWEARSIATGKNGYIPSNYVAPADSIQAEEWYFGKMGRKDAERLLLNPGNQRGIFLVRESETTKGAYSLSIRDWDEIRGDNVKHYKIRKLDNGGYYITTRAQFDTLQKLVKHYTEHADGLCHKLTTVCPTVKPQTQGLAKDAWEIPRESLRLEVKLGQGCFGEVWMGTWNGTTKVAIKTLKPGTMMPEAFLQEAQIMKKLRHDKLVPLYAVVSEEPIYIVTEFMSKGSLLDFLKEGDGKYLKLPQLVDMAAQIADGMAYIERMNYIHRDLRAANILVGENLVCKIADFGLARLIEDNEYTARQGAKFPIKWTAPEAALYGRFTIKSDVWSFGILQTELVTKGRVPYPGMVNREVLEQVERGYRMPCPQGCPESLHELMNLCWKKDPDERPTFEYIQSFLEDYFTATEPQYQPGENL

PHKGAMMA2 = molecular target: T39, PHKGAMMA2 (Homo sapiens, UniProt P15735); assay: Millipore kinase panel; assay type: biochemical; conditions: read-out: % Control
T39 construct: purchased Millipore KinaseProfiler (kinases); Cerep (receptors and ion channels)

ULK2 = molecular target: T40, ULK2 (Homo sapiens, UniProt Q8IYT8); assay: Millipore kinase panel; assay type: biochemical; conditions: read-out: % Control
T40 construct: purchased Millipore KinaseProfiler (kinases); Cerep (receptors and ion channels)

IGF-1R, ACTIVATED = molecular target: T41, IGF-1R, ACTIVATED (Homo sapiens, UniProt P08069); assay: Millipore kinase panel; assay type: biochemical; conditions: read-out: % Control
T41 construct: purchased Millipore KinaseProfiler (kinases); Cerep (receptors and ion channels)

Structure (SMILES): Cn1cc(-c2ccc(-c3cncc(Cl)c3N3CCC4(CCNC4=O)CC3)cc2)cn1 [Compound 74, 8-(3-Chloro-5-(4-(1-methyl-1H-pyrazol-4-yl)phenyl)pyridin-4-yl)-2,8-diazaspiro[4.5]decan-1-one]
- % Inhibition of Control Specific Binding (GABA (non-selective)): 5%
- inhibition at 10 µM (CCR1 (h)): -4%
- inhibition at 10 µM (MT1 (ML1A) (h)): 34%
- inhibition at 10 µM (M2 (h)): 38%
- inhibition at 10 µM (NK3 (h)): 4%
- % Inhibition of Control Specific Binding (κ (KOP)): 72%
- inhibition at 10 µM (5-HT2B (h)): 6%
- % Inhibition of Control Specific Binding (SKCa channel): 3%
- inhibition at 10 µM (5-HT transporter (h)): 70%
- remaining activity at 1 µM (ABL): -5%
- remaining activity at 1 µM (ALK): -22%
- remaining activity at 1 µM (ALK4): -12%
- remaining activity at 1 µM (ARK5): -2%
- remaining activity at 1 µM (CDK5/P25): -21%
- remaining activity at 1 µM (CDK6/CYCLIND3): -3%
- remaining activity at 1 µM (CDK7/CYCLINH/MAT1): 4%
- remaining activity at 1 µM (CDK9/CYCLINT1): -29%
- remaining activity at 1 µM (DMPK): 9%
- remaining activity at 1 µM (EPHA8): -7%
- remaining activity at 1 µM (ERBB4): 0%
- remaining activity at 1 µM (FER): 11%
- remaining activity at 1 µM (FYN): 1%
- IC50 (LCK; ATP at Km): > 10 µM
- remaining activity at 1 µM (LCK; read-out: % Control): 10%
- remaining activity at 1 µM (LOK): -6%
- remaining activity at 1 µM (MINK): -12%
- remaining activity at 1 µM (MLCK): 1%
- remaining activity at 1 µM (MRCKBETA): -4%
- remaining activity at 1 µM (MSK1): 5%
- remaining activity at 1 µM (PAK2): -7%
- remaining activity at 1 µM (PAK5): 4%
- remaining activity at 1 µM (PAK6): -2%
- remaining activity at 1 µM (PKCZETA): -7%
- remaining activity at 1 µM (PRK2): 0%
- remaining activity at 1 µM (PTK5): -18%
- remaining activity at 1 µM (ROCK-I): -1%
- remaining activity at 1 µM (RON): -9%
- remaining activity at 1 µM (SRPK2): -10%
- remaining activity at 1 µM (STK33): 9%
- remaining activity at 1 µM (TBK1): 4%
- remaining activity at 1 µM (YES): 7%
- remaining activity at 1 µM (PHKGAMMA2): 4%
- remaining activity at 1 µM (ULK2): -2%
- remaining activity at 1 µM (IGF-1R, ACTIVATED): 11%
